{"source": "patent US5776959A", "about": "“Anticonvulsant and anxiolytic lactam and thiolactam derivatives” (priority 1995, dated 1998)", "key": {"[1]": {"test_system": "pentylenetetrazol (PTZ) seizures in mice", "assay": "Pentylenetetrazol Seizure Threshold Test (PTZ)", "format": "in vivo, mouse (female CF-1)", "conditions": "Mus musculus, 0.5 h, ip, 30 min before pentylenetetrazol 85 mg/kg ip, read-out: Convulsant Challenge ED50, PTZ", "procedure": "Pentylenetetrazol Seizure Threshold Test (PTZ)\nAnticonvulsant screening was accomplished by methods based on those of Swinyard and Woodhead using female CF-1 strain mice. […] The animals were placed in isolation cages and observed for the next 30 minutes for the presence or absence of a seizure. A threshold convulsion is defined as one episode of clonic spasms that persists for at least a 5-sec period."}, "[2]": {"assay": "Rotorod Test for Toxicity (neurotoxicity)", "format": "in vivo, mouse", "conditions": "mouse, in vivo, mice, ip, 30 min", "procedure": "(§1) Rotorod Test for Toxicity\n(§2) This test is used in mice to assess neurotoxicity. Mice were placed on a 1 in. diameter rod, which rotates at 6 rpm, and tested for maintenance of their equilibrium for 10 min. All mice were pre-tested before a test substance is given. Test compounds are dissolved in 30% polyethylene glycol and given by intraperitoneal (ip) injections in a volume of 0.01 mL/g of body weight. […] This test also measures sedative effect of the compound tested. […] 21, 1985."}, "[3]": {"test_system": "maximal electroshock (MES) seizures in mice", "assay": "Maximal Electroshock Seizure Test (MES)", "format": "in vivo", "conditions": "Mus musculus, 0.5 h, ip, 30 min before electroshock 50 mA 0.2 sec, read-out: Convulsant Challenge ED50, MES", "procedure": "Maximal Electroshock Seizure Test (MES)\nTest compounds were dissolved in 30% polyethylene glycol and given by intraperitoneal (ip) injections in a volume of 0.01 mL/g of body weight. […] Corneal electrodes were applied to the eyes, and an electrical stimulus consisting of a 60-Hz alternating current of 50 mA was delivered for 0.2 sec. The animals were held by hand and released at the time of stimulation for observation of the seizure. Abolition of the hindleg tonic extension component was taken as the endpoint for this test."}, "neurotoxicity in mice": {"test_system": "neurotoxicity in mice", "assay": "Rotorod Test for Toxicity (neurotoxicity)", "format": "in vivo, mouse", "conditions": "ip, 30 min", "procedure": "as §1, §2"}, "[4]": {"assay": "Convulsant activity (observation of seizures in injected mice)", "conditions": "mouse, in vivo, read-out: Convulsive Activity CD50", "procedure": "Convulsant activity of test compounds is assessed by monitoring injected mice by monitoring seizures by observing for the onset of myoclonic twitches, generalized clonic seizures and tonic seizures."}, "sedation in mice": {"test_system": "sedation in mice", "conditions": "100 mg/kg; cited from earlier work"}, "[5]": {"test_system": "anxiety in mice (plus-maze)", "assay": "Anxiolytic plus-maze test", "format": "in vivo, mouse (male NIH Swiss)", "conditions": "for Time spent on Plus-Maze Open Arms (% of Control): mice, ip, 30 min, 5 min test", "description": "A modification of the plus-maze test (Lister R G (1987) \"The use of a plus-maze to measure anxiety in the mouse\" Psychopharmacology, 92, 180-185.) was used to measure the anxiolytic activity of the compounds of this invention in mice. The plus-maze apparatus used in the test consisted of four 30 cm×5 cm arms, two of which were enclosed by 16 cm high walls while the other two were unwalled. The four arms radiated out from a 5×5 cm central platform. The entire maze was elevated 34 cm on legs. The floor parts of the maze were made of wood painted black. The walls were clear plexiglass.\nMale mice of the NIH Swiss strain are used in the test which is carried out in a room with no distractions. Test compounds were dissolved in 30% polyethylene glycol and given by intraperitoneal (ip) injections in a volume of 0.01 mL/g of body weight. […] During each 5 minute test, the number of entries to open arms and closed arms and the amount of time spent on each were recorded. A mouse has entered an arm when all four feet are on the arm. Each mouse was used only once. The anxiolytic dose of a test compound is that dose which causes a significant increase in the amount of time the test mouse spends in the open arms of the plus-maze in comparison to the amount of time a control mouse not receiving a test compound spends in the open arms of the maze."}, "GABAA receptor": {"test_system": "GABAA receptor", "assay": "Potentiation of GABA currents in cultured rat hippocampal neurons (GABAA receptor electrophysiology test, whole-cell patch clamp)", "format": "cell-based, rat (Sprague-Dawley)", "experimental": "Hippocampal Cell Culture Methods\nUnder halothane anaesthesia, 1 day old female Sprague-Dawley rats were sacrificed by rapid decapitation and the hippocampi were dissected, minced and incubated in 3 mL of Leibovitz's L-15 containing 1 mg/mL papain and 0.2 mg/mL bovine serum albumin (BSA) for 20 min. at 37° C. The papain solution was removed and the hippocampi were triturated with pasteur pipettes in growth medium. The resulting suspension was centrifuged through 2 mL of medium containing 10 mg/mL trypsin inhibitor and 10 mg/mL BSA. The cells were resuspended into growth medium and plated, 2.5×10^5 cells/dish, on a monolayer of cortical glial cells in 35 mm plastic culture dishes. The culture dishes were pretreated with poly-L-lysine followed by plating of glial cells harvested from the cortices of 2-6 day postnatal rats four days prior to neuron plating. […]\nMedium in the culture dishes was replaced with an extracellular solution containing: 140 mM NaCl, 3 mM KCl, 10 mM HEPES, 5 mm MgCl2, and 5.5 mM glucose. Neurons were recorded using the whole cell configuration of the patch clamp technique, (Hamil P O, Marty A, Neher E, Sakmann B, Sakmann J F (1981) \"Improved patch-clamp techniques for high resolution current recordings from cells and cell-free membrane patches\" Pfluegers Arch., 391, 85-100.) and the neuronal membrane was clamped to a potential of 130 mV. […]"}, "convulsant seizures": {"test_system": "convulsant seizures", "conditions": "in vivo; cited from earlier work"}}, "data": [{"smiles": "CCC1(C)CCN(C)C1=O", "note": "(stereo not drawn) [1,3-Dimethyl-3-ethyl-2-pyrrolidinone]", "values": [{"measurement": "ED50", "setting": "[1]", "result": 259, "unit": "mg/kg"}, {"measurement": "TD50 at 0.5 h", "setting": "[2]", "result": 520, "unit": "mg/kg"}]}, {"smiles": "O=C1CCCCN1", "note": "[2-Piperidinone, reference compound]", "values": [{"measurement": "ED50", "setting": "[1]", "result": "> 600", "unit": "mg/kg"}, {"measurement": "TD50 at 0.5 h", "setting": "[2]", "result": "> 600", "unit": "mg/kg"}]}, {"smiles": "O=C1CCCN1", "note": "[2-Pyrrolidinone, reference compound]", "values": [{"measurement": "ED50", "setting": "[3]", "result": "> 600", "unit": "mg/kg"}, {"measurement": "ED50", "setting": "[1]", "result": "> 900", "unit": "mg/kg"}, {"measurement": "Toxicity TD50", "setting": "neurotoxicity in mice", "result": "> 900", "unit": "mg/kg"}]}, {"smiles": "CC1(C)CNC(=O)C1(C)C", "note": "[3,3,4,4-Tetramethyl-2-pyrrolidinone]", "values": [{"measurement": "CD50 (convulsant dose, 50%)", "setting": "[4]", "result": 32, "unit": "mg/kg"}]}, {"smiles": "CCC1(CC)CCCNC1=O", "note": "[3,3-Diethyl-2-piperidinone]", "values": [{"measurement": "ED50", "setting": "[3]", "result": 56, "unit": "mg/kg"}, {"measurement": "ED50", "setting": "[1]", "result": 39, "unit": "mg/kg"}, {"measurement": "TD50 at 0.5 h", "setting": "[2]", "result": 177, "unit": "mg/kg"}, {"measurement": "sedative activity reported in literature", "setting": "sedation in mice", "result": "weak sedative activity"}]}, {"smiles": "CCC1(CC)CCNC1=O", "note": "[3,3-Diethyl-2-pyrrolidinone]", "values": [{"measurement": "ED50", "setting": "[3]", "result": 174, "unit": "mg/kg"}, {"measurement": "ED50", "setting": "[1]", "result": 46, "unit": "mg/kg"}, {"measurement": "anxiolytic activity", "setting": "[5]; compared to α-ethyl-α-methyl-γ-thiobutyrolactone, Table 3", "result": "significantly stronger anxiolytic activity"}, {"measurement": "Time spent on Plus-Maze Open Arms (% of Control)", "setting": "[5]; dose 100 mg/kg", "result": 179, "unit": "%"}, {"measurement": "Time spent on Plus-Maze Open Arms (% of Control)", "setting": "[5]; dose 175 mg/kg", "result": 253, "unit": "%"}, {"measurement": "% Potentiation Relative to Control (N)", "setting": "GABAA receptor; compound 1 mM, 3 μM GABA, mean ± SEM, percent of control response (100%)", "result": "274 ± 64", "unit": "%"}, {"measurement": "enhancement of GABA-mediated chloride ion currents", "setting": "GABAA receptor; cultured rat hippocampal neurons", "result": "more effectively than the previously described α-ethyl-α-methyl-γ-thiobutyrolactone"}, {"measurement": "Toxicity TD50", "setting": "neurotoxicity in mice", "result": 260, "unit": "mg/kg"}]}, {"smiles": "CCC1(CC)CC(C)(C)NC1=O", "note": "[3,3-Diethyl-5,5-dimethyl-2-pyrrolidinone]", "values": [{"measurement": "CD50 (convulsant dose, 50%)", "setting": "[4]", "result": 75, "unit": "mg/kg"}]}, {"smiles": "CC1(C)CCNC1=O", "note": "[3,3-Dimethyl-2-pyrrolidinone, 3,3-dimethyl-2-pyrrolidinone, reference compound]", "values": [{"measurement": "ED50", "setting": "[3]", "result": "> 600", "unit": "mg/kg"}, {"measurement": "ED50", "setting": "[1]", "result": 708, "unit": "mg/kg"}, {"measurement": "TD50 at 0.5 h", "setting": "[2]", "result": 900, "unit": "mg/kg"}, {"measurement": "anticonvulsant activity reported in literature", "setting": "convulsant seizures", "result": "no anticonvulsant activity"}]}, {"smiles": "CCC1CCCNC1=O", "note": "(stereo not drawn) [3-Ethyl-2-Piperidinone, reference compound]", "values": [{"measurement": "ED50", "setting": "[1]", "result": 339, "unit": "mg/kg"}, {"measurement": "TD50 at 0.5 h", "setting": "[2]", "result": 382, "unit": "mg/kg"}]}, {"smiles": "CCC1(C)CCCNC1=O", "note": "(stereo not drawn) [3-Ethyl-3-Methyl-2-Piperidinone, 3-ethyl-3-methyl-2-piperidinone]", "values": [{"measurement": "ED50", "setting": "[3]", "result": 198, "unit": "mg/kg"}, {"measurement": "ED50", "setting": "[1]", "result": 162, "unit": "mg/kg"}, {"measurement": "TD50 at 0.5 h", "setting": "[2]", "result": 382, "unit": "mg/kg"}]}, {"smiles": "CCC1(Cc2ccccc2)CCCNC1=O", "note": "(stereo not drawn) [3-Ethyl-3-phenylmethyl-2-piperidinone, 3-ethyl-3-phenylmethyl-2-piperidinone]", "values": [{"measurement": "ED50", "setting": "[3]", "result": 79, "unit": "mg/kg"}, {"measurement": "ED50", "setting": "[1]", "result": 61, "unit": "mg/kg"}, {"measurement": "TD50 at 0.5 h", "setting": "[2]", "result": 102, "unit": "mg/kg"}]}, {"smiles": "CCC1CC(C)(C)NC1=O", "note": "(stereo not drawn) [3-Ethyl-5,5-dimethyl-2-pyrrolidinone]", "values": [{"measurement": "CD50 (convulsant dose, 50%)", "setting": "[4]", "result": 106, "unit": "mg/kg"}]}, {"smiles": "CC1CCCNC1=O", "note": "(stereo not drawn) [3-Methyl-2-Piperidinone, reference compound]", "values": [{"measurement": "ED50", "setting": "[3]", "result": "> 600", "unit": "mg/kg"}, {"measurement": "ED50", "setting": "[1]", "result": "> 600", "unit": "mg/kg"}, {"measurement": "TD50 at 0.5 h", "setting": "[2]", "result": "> 600", "unit": "mg/kg"}]}, {"smiles": "CC1CCNC1=O", "note": "(stereo not drawn) [3-Methyl-2-pyrrolidinone, reference compound]", "values": [{"measurement": "ED50", "setting": "[3]", "result": "> 750", "unit": "mg/kg"}, {"measurement": "ED50", "setting": "[1]", "result": "> 900", "unit": "mg/kg"}, {"measurement": "TD50 at 0.5 h", "setting": "[2]", "result": "~900", "unit": "mg/kg"}]}, {"smiles": "CC1(Cc2ccccc2)CCCNC1=O", "note": "(stereo not drawn) [3-Methyl-3-phenylmethyl-2-piperidinone, 3-methyl-3-phenylmethyl-2-piperidinone]", "values": [{"measurement": "ED50", "setting": "[3]", "result": 49, "unit": "mg/kg"}, {"measurement": "ED50", "setting": "[1]", "result": 56, "unit": "mg/kg"}, {"measurement": "TD50 at 0.5 h", "setting": "[2]", "result": 131, "unit": "mg/kg"}]}, {"smiles": "O=C1NCCCC1Cc1ccccc1", "note": "(stereo not drawn) [3-Phenylmethyl-2-piperidinone, 3-phenylmethyl-2-piperidinone]", "values": [{"measurement": "ED50", "setting": "[3]", "result": 42, "unit": "mg/kg"}, {"measurement": "ED50", "setting": "[1]", "result": 85, "unit": "mg/kg"}, {"measurement": "TD50 at 0.5 h", "setting": "[2]", "result": 294, "unit": "mg/kg"}]}, {"smiles": "O=C1NCCC1Cc1ccccc1", "note": "(stereo not drawn) [3-Phenylmethyl-2-pyrrolidinone, 3-phenylmethyl-2-pyrrolidinone]", "values": [{"measurement": "ED50", "setting": "[3]", "result": 41, "unit": "mg/kg"}, {"measurement": "ED50", "setting": "[1]", "result": 71, "unit": "mg/kg"}, {"measurement": "Toxicity TD50", "setting": "neurotoxicity in mice", "result": 144, "unit": "mg/kg"}]}, {"smiles": "CC1(C)CNC(=O)C1", "note": "[4,4-Dimethyl-2-pyrrolidinone, reference compound]", "values": [{"measurement": "ED50", "setting": "[1]", "result": 600, "unit": "mg/kg"}, {"measurement": "TD50 at 0.5 h", "setting": "[2]", "result": "> 600", "unit": "mg/kg"}]}, {"smiles": "CCC1(C)CNC(=O)C1", "note": "(stereo not drawn) [4-Ethyl-4-Methyl-2-pyrrolidinone, 4-ethyl-4-methyl-2-pyrrolidinone, reference compound]", "values": [{"measurement": "ED50", "setting": "[3]", "result": "> 300", "unit": "mg/kg"}, {"measurement": "ED50", "setting": "[1]", "result": 327, "unit": "mg/kg"}, {"measurement": "TD50 at 0.5 h", "setting": "[2]", "result": "> 300", "unit": "mg/kg"}, {"measurement": "anticonvulsant activity reported in literature", "setting": "convulsant seizures", "result": "much less active"}]}, {"smiles": "CC1(C)CCC(=O)N1", "note": "[5,5-Dimethyl-2-pyrrolidinone]", "values": [{"measurement": "CD50 (convulsant dose, 50%)", "setting": "[4]", "result": 387, "unit": "mg/kg"}]}, {"smiles": "CC1(C)CCSC1=O", "note": "[α,α-dimethyl-y-thiobutyrolactone]", "values": [{"measurement": "ED50", "setting": "[1]", "result": "> 500", "unit": "mg/kg"}]}]}
